From PubChem BioAssay AID838 (SRMLSC, 2007)
Calls of active or inactive are those of the source. The rule behind the calls is not given here.

molecular target: Pantothenate synthetase (Mycobacterium tuberculosis (strain ATCC 25618 / H37Rv)) (UniProt P9WIL5); test: M. tuberculosis pantothenate synthetase inhibitors, biochemical confirmatory screen (AID 838); settings: M. tuberculosis pantothenate synthetase enzyme inhibition
Sequence (P9WIL5 whole entry, looked up): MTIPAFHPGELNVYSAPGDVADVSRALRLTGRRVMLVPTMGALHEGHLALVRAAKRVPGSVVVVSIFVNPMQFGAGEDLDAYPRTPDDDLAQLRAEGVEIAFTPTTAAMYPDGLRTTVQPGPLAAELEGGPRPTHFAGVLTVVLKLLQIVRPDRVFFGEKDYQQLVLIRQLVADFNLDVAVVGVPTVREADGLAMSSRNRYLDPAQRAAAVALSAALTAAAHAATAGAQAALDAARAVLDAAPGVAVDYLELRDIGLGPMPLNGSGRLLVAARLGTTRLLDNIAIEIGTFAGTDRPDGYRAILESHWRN

Question: `COc1ccc(-c2cc(C(=O)Nc3cnn(Cc4ccccc4C)c3)no2)cc1` was tested. Which IC50 did it give?
Answer: Its IC50 is 47700 nM.

Question: Which IC50 does the source give for `O=C(Nc1cnn(Cc2ccc(F)cc2)c1)c1noc2ccc(-c3ccccc3)cc12` here?
Answer: Its IC50 is 108000 nM.

Question: `Cc1ccccc1Cn1cc(NC(=O)c2noc3c2CC(C(C)(C)C)CC3)cn1` (stereo not given) was tested. Which IC50 did it give?
Answer: The IC50 was 150 nM.

Question: How did the IC50 turn out when `CC(C)(C)c1ccc2onc(C(=O)Nc3cnn(Cc4cccc(F)c4)c3)c2c1` was run?
Answer: The IC50 was 640 nM.

Question: `CC(C)(C)C1CCc2onc(C(=O)Nc3cnn(Cc4ccccc4I)c3)c2C1` (stereo not given) was tested. Which IC50 did it give?
Answer: Its IC50 is 104 nM.

Question: Which IC50 does the source give for `CC(C)(C)c1ccc2onc(C(=O)Nc3cnn(Cc4ccc(F)cc4)c3)c2c1` here?
Answer: Its IC50 is 351 nM.

Question: Which IC50 does the source give for `CC(C)(C)c1ccc2onc(C(=O)Nc3cnn(Cc4ccc(I)cc4)c3)c2c1` here?
Answer: Its IC50 is 36300 nM.

Question: With `CC(C)(C)C1CCc2onc(C(=O)Nc3cnn(Cc4ccccc4C(F)(F)F)c3)c2C1` (stereo not given) as the compound, how does the IC50 read?
Answer: Its IC50 is 274 nM.

Question: `CC(C)(C)C1CCc2onc(C(=O)Nc3cnn(Cc4ccc(I)cc4)c3)c2C1` (stereo not given) was tested. Which IC50 did it give?
Answer: Its IC50 is 68 nM.

Question: With `CC(C)(C)C1CCc2onc(C(=O)Nc3cnn(Cc4ccc(Cl)cc4Cl)c3)c2C1` (stereo not given) as the compound, how does the IC50 read?
Answer: Its IC50 is 111 nM.

Question: With `CC(C)(C)C1CCc2onc(C(=O)Nc3cnn(Cc4ccc(F)cc4F)c3)c2C1` (stereo not given) as the compound, how does the IC50 read?
Answer: The IC50 was 128 nM.

Question: For `CC(C)(C)C1CCc2onc(C(=O)Nc3cnn(Cc4cccc(I)c4)c3)c2C1` (stereo not given), which IC50 is on record?
Answer: Its IC50 is 101 nM.

same assay, conditions: M. tuberculosis pantothenate synthetase enzyme inhibition; at 100 µM; hits give high values

Question: How did the inhibition turn out when `O=C(Nc1cnn(Cc2ccc(F)cc2)c1)c1noc2c1CC(c1ccccc1)CC2` (stereo not given) was run?
Answer: The inhibition was “inactive”.

Question: Which inhibition does the source give for `Cc1onc(-c2ccccc2Cl)c1C(=O)Nc1cnn(Cc2ccccc2)c1` here?
Answer: Its inhibition is “inactive”.

Question: How did the inhibition turn out when `COc1cc(CN(C)C(=O)c2ccc(N3CCC(O)(c4cccc(C(F)(F)F)c4)CC3)nc2)cc(OC)c1OC` was run?
Answer: The inhibition was “inactive”.

Question: Which inhibition does the source give for `Cc1cccc(CN2C(=O)COc3cc(C(=O)N4CCN(Cc5ccccc5)CC4)ccc32)c1` here?
Answer: The inhibition was “inactive”.

Question: `CCCN(CC1CC1)CC1CCCN(C(=O)c2cc(C)on2)C1` (stereo not given) was tested. Which inhibition did it give?
Answer: Its inhibition is “inactive”.

Question: For `Cc1cc(C(=O)N2CCc3[nH]cnc3C2c2ccc(F)cc2)no1` (stereo not given), which inhibition is on record?
Answer: Its inhibition is “inactive”.

Question: With `COc1cc(C(=O)Nc2cnn(Cc3cccc(I)c3)c2)cc(OC)c1OC` as the compound, how does the inhibition read?
Answer: The inhibition was “inactive”.

Question: How did the inhibition turn out when `CC(C)(C)c1ccc2onc(C(=O)Nc3cnn(Cc4cccc(F)c4)c3Cl)c2c1` was run?
Answer: The inhibition was “inactive”.

Question: How did the inhibition turn out when `Cc1noc(C)c1CN1C(=O)COc2cc(C(=O)NCc3ccc(C(F)(F)F)nc3)ccc21` was run?
Answer: Its inhibition is “inactive”.

Question: How did the inhibition turn out when `Cc1cc(C(=O)N2CCCC(CN3CCC(C(F)(F)F)CC3)C2)no1` (stereo not given) was run?
Answer: Its inhibition is “inactive”.

Question: `Cc1cc(C(=O)N2CCc3[nH]cnc3C2c2ccc(-n3cncn3)cc2)no1` (stereo not given) was tested. Which inhibition did it give?
Answer: Its inhibition is “inactive”.

Question: How did the inhibition turn out when `COc1cccc(-c2cc(C(=O)Nc3cnn(Cc4ccccc4C)c3)no2)c1` was run?
Answer: Its inhibition is “inactive”.

Question: For `O=C(Nc1cnn(Cc2ccc(Cl)cc2Cl)c1)c1noc2c1CCCCC2`, which inhibition is on record?
Answer: Its inhibition is “inactive”.

Question: With `COc1cc(CN(C)C(=O)c2ccc(N3CCC(O)(Cc4ccccc4)CC3)nc2)cc(OC)c1OC` as the compound, how does the inhibition read?
Answer: The inhibition was “inactive”.

Question: How did the inhibition turn out when `CCc1ccc(C2c3nc[nH]c3CCN2C(=O)c2cc(C)on2)cc1` (stereo not given) was run?
Answer: Its inhibition is “inactive”.

Question: For `O=C(Nc1cnn(Cc2ccc(F)cc2)c1)c1noc2ccccc12`, which inhibition is on record?
Answer: The inhibition was “inactive”.

Question: For `CCOc1ccc(Cn2cc(NC(=O)C(C)(C)n3cc([N+](=O)[O-])cn3)cn2)cc1OCC`, which inhibition is on record?
Answer: Its inhibition is “inactive”.

Question: With `COc1cc(CN(C)C(=O)c2ccc(N3CCc4ccccc4C3)nc2)cc(OC)c1OC` as the compound, how does the inhibition read?
Answer: The inhibition was “inactive”.

Question: `O=C(Nc1cnn(Cc2ccc(Cl)cc2Cl)c1)c1noc2c1CCCC2` was tested. Which inhibition did it give?
Answer: The inhibition was “inactive”.

Question: With `Cc1cc(C(=O)N2CCCN(c3cc(-c4cc(F)ccc4C)ncn3)CC2)no1` as the compound, how does the inhibition read?
Answer: The inhibition was “inactive”.

Question: For `COc1ccccc1-c1cc(C(=O)Nc2cnn(Cc3ccccc3C)c2)no1`, which inhibition is on record?
Answer: The inhibition was “inactive”.

Question: With `COc1cccc(C2c3nc[nH]c3CCN2C(=O)c2cc(C)on2)c1` (stereo not given) as the compound, how does the inhibition read?
Answer: Its inhibition is “inactive”.

Question: How did the inhibition turn out when `Cc1cc(C(=O)N2CCCN(c3cc(-c4ccc5ccccc5c4)ncn3)CC2)no1` was run?
Answer: The inhibition was “inactive”.

Question: How did the inhibition turn out when `Cc1cc(C(=O)N2CCCC(CN3CCN(c4cnccn4)CC3)C2)no1` (stereo not given) was run?
Answer: The inhibition was “inactive”.

Question: With `Cc1cc(C(=O)N2CCCC(CN3CCc4ccccc4C3)C2)no1` (stereo not given) as the compound, how does the inhibition read?
Answer: The inhibition was “inactive”.

Question: For `Cc1ccccc1Cn1cc(NC(=O)c2cc(-c3cccs3)on2)cn1`, which inhibition is on record?
Answer: Its inhibition is “inactive”.

Question: For `O=C(Cn1nc(C2CC2)cc1C(F)F)Nc1cnn(Cc2c(F)cc(F)c(F)c2F)c1`, which inhibition is on record?
Answer: The inhibition was “inactive”.

Question: How did the inhibition turn out when `Cc1ccccc1Cn1cc(NC(=O)c2noc3c2CCCC3)cn1` was run?
Answer: The inhibition was “inactive”.

Question: With `O=C(Nc1cnn(Cc2ccc(F)cc2)c1)c1cc(C2CC2)on1` as the compound, how does the inhibition read?
Answer: Its inhibition is “inactive”.

Question: How did the inhibition turn out when `Cc1cc(C(=O)NCCc2nc(C(=O)NCCN(C)C)cs2)no1` was run?
Answer: The inhibition was “inactive”.

Question: For `Cc1ccccc1Cn1cc(NC(=O)c2cc(C3CC3)on2)cn1`, which inhibition is on record?
Answer: The inhibition was “inactive”.

Question: For `CCCc1cc(C(=O)Nc2cnn(Cc3ccc(F)cc3)c2)no1`, which inhibition is on record?
Answer: Its inhibition is “inactive”.

Question: With `CCN(Cc1ccncc1)CC1CCCN(C(=O)c2cc(C)on2)C1` (stereo not given) as the compound, how does the inhibition read?
Answer: The inhibition was “inactive”.

Question: With `O=C(Nc1cnn(Cc2ccc(F)cc2)c1)c1noc2c1CCCC2` as the compound, how does the inhibition read?
Answer: The inhibition was “inactive”.

Question: With `Cc1cc(C(=O)N2CCCC(CN(C)Cc3ccc(Cl)cc3)C2)no1` (stereo not given) as the compound, how does the inhibition read?
Answer: Its inhibition is “inactive”.

Question: For `Cc1ccccc1Cn1cc(NC(=O)c2cc(-c3ccco3)on2)cn1`, which inhibition is on record?
Answer: Its inhibition is “inactive”.

Question: How did the inhibition turn out when `Cc1cc(C(=O)N2CCc3[nH]cnc3C2c2ccccc2F)no1` (stereo not given) was run?
Answer: Its inhibition is “inactive”.

Question: How did the inhibition turn out when `COCCN(CC1CCCN(C(=O)c2cc(C)on2)C1)C(C)C` (stereo not given) was run?
Answer: Its inhibition is “inactive”.
